# Patent US5944026A, “Tobacco products or materials resembling tobacco products containing natural substances having an antioxidative effect and processes for the preparation thereof” (priority 1994, dated 1999)
# Read-outs that look alike come from different tables or passages of the source.
# How the values were obtained:
# [1] = Solubility/miscibility of aromatic substances, vitamins A and E and β-carotene in natural substances used as solvents; assay type: physicochemical
# [2] = Solubility of aromatic substances and the vitamins A and E in filter hardeners; conditions: for solubility in hardener TEGDA: hardener: TEGDA (triethylene glycol diacetate)
# [3] = test system: Salmonella typhimurium, strain TA 98; test: Ames test (TA98): antimutagenic effect of added substances on mutagenicity of cigarette smoke condensate; assay type: cell-based; conditions: graphical representation in figure
# Experimental: To detect this antimutagenic action, the Ames test (loc.cit.) was carried out as a meaningful rapid test.
# It was ensured in this process that work was carried out in a concentration range which was not toxic for the bacteria.
# [4] = test system: Salmonella typhimurium, strain TA 98; test: Ames test with S9 activation: smoke condensate of experimental cigarettes with cloves, cinnamon sticks or eugenol; assay type: cell-based; conditions: additions to cut tobacco
# Experimental: Five versions of filter cigarettes which differ in the composition of the final mixture according to Table 6 and have the same tobacco base mixture were prepared in the same format and same cigarette weight (940 mg). The cloves or cinnamon sticks employed were moistened with steam, rolled and cut before mixing with tobacco.
# The experimental cigarettes were smoked under standard conditions (see Example 1).
Structure (SMILES),solubility in cinnamaldehyde as a solvent ([1]; solvent: cinnamaldehyde) [% by weight],solubility in eugenol as a solvent [1] [% by weight],solubility in jasminealdehyde as a solvent ([1]; solvent: jasminealdehyde) [% by weight],solubility in hardener triacetin [2] [% by weight],mutagenicity of cigarette smoke condensate on addition of the substance [3],other results
Cc1ccc2oc(=O)ccc2c1 [6-Methylcoumarin],–,–,–,–,–,solubility in cinnamaldehyde as a solvent [1]: > 10 % by weight; solubility in jasminealdehyde as a solvent [1]: > 10 % by weight
CCOc1cc(C=O)ccc1O [Ethylvanillin],> 10,> 10,> 10,> 10,–,solubility in vitamin E acetate as a solvent [1]: < 1 % by weight; solubility in hardener TEGDA [2]: > 10 % by weight; solubility in hardener eugenol [2]: > 10 % by weight
"CC1=C(/C=C/C(C)=C/C=C/C(C)=C/CO)C(C)(C)CCC1 [Vitamin A, retinol]",–,–,–,–,–,solubility in cinnamaldehyde as a solvent [1]: > 10 % by weight; solubility in jasminealdehyde as a solvent [1]: > 10 % by weight
"Cc1c(C)c2c(c(C)c1OC(=O)CCC(=O)O)CC[C@@](C)(CCC[C@H](C)CCC[C@H](C)CCCC(C)C)O2 [Vitamin E succinate, tocopherol succinate]",> 10,> 10,> 10,< 1,–,solubility in hardener TEGDA [2]: < 1 % by weight; solubility in hardener eugenol [2]: 10 % by weight
"Cc1c(C)c2c(c(C)c1O)CCC(C)(CCCC(C)CCCC(C)CCCC(C)C)O2 (stereo not drawn) [Vitamin E, α-tocopherol]",–,–,–,> 10,–,–
"O=C(O)/C=C/c1ccc(O)c(O)c1 [caffeic acid, Caffeic acid]",–,–,–,–,reduction of the mutagenicity,–
"COc1cc(/C=C/C(=O)CC(=O)/C=C/c2ccc(O)c(OC)c2)ccc1O [curcumin, Curcumin]",–,–,–,–,reduction of the mutagenicity,–
"C=CCc1ccc(O)c(OC)c1 [eugenol, Eugenol]",–,–,–,–,reduction of the mutagenicity,mutagenic effect of the smoke condensate (in words) [4]: decrease the mutagenic effect of the smoke condensate
"COc1cc2ccc(=O)oc2cc1O [scopoletin, 7-hydroxy-6-methoxycoumarin]",–,–,–,–,reduction of the mutagenicity,–
CC1=C(/C=C/C(C)=C/C=C/C(C)=C/C=C/C=C(C)/C=C/C=C(C)/C=C/C2=C(C)CCCC2(C)C)C(C)(C)CCC1 [β-carotene],> 1,< 1,< 1,–,–,solubility in vitamin E acetate as a solvent [1]: < 1 % by weight
